# Assay results as given in US20240368209A1, “GEMCITABINE ANTICANCER DERIVATIVE AND ANTICANCER PHARMACEUTICAL USE” (ASCENTAWITS PHARMACEUTICALS, LTD., priority 2021, published 2024).
# Columns and labels:
# [1] = tested on: HuPrime pancreatic cancer xenograft model PA1222; test: In vivo pharmacodynamic experiment in HuPrime pancreatic cancer PA1222 PDX model
# [2] = Metabolic stability in dog liver microsomes; type: in vitro ADME
# Description: Main solutions were prepared according to Table 9 below:
# (II) Two Separate Experiments were Performed • a) With cofactor (NADPH): 25 μL of 10 mM NADPH was added to the culture broth. The final concentration of liver microsomes was 0.5 mg/mL, and the final concentration of NADPH was 1 mM. • b) Without cofactor (NADPH): 25 μL of 100 mM phosphate buffer was added. The final concentration of liver microsomes was 0.5 mg/mL. The mixture was preheated at 37° C. for 10 minutes. (III) 25 μL of […] control compound or test compound solution was added to start the reaction. […] The final concentrations of the test compound and control compound were both 1 μM. The culture broth was cultured in water at 37° C. (IV) Aliquots of 30 μL were collected from the reaction solution at 0.5, 5, 15, 30, and 60 minutes, respectively. 5 volumes of cold acetonitrile and IS (internal standard, containing 100 nM of alprazolam, 200 nM of caffeine, and 100 nM of tolylbutanamide) were added to stop the reaction. […] 100 μL of supernatant was taken and mixed with 100 μL of ultrapure water, equally divided and analyzed with LC-MS/MS.
# All calculations were conducted using Microsoft Excel. The peak area was determined from the extracted ion chromatogram.
# [formula] [formula] [formula] • wherein, QH is the hepatic blood flow (mL/min/kg) in Table 10, and fub is the fraction of drug unbound in plasma, and assumed as 1.
# [3] = Plasma stability in mouse plasma; type: in vitro ADME
# Description: The final concentration of organic solvents was 0.5%. The test was conducted in duplicate. • C.
# Samples were analyzed with LC-MS/MS. All calculations were conducted using Microsoft Excel.
# [4] = Group 5, 160 mg/kg i.v. Q2D×3 weeks, Day 32
smiles,measurement,setting,value
CC(C)NP(=O)(OCc1ccc([N+](=O)[O-])c(Oc2ccc(-c3ccc(F)cc3)c(F)c2)c1)OCC1OC(C2N=CC(N)=NC2=O)C(F)(F)C1O (centres unmarked) [Compound H11],Tumor volume (mm^3) (x ± S),"[1]; Group 4, 160 mg/kg i.p., day 0",101.91 mm^3
same,Tumor volume (mm^3) (x ± S),"[1]; Group 4, 160 mg/kg i.p., day 4",105.94 mm^3
same,Tumor volume (mm^3) (x ± S),"[1]; Group 4, 160 mg/kg i.p., day 7",96.63 mm^3
same,Tumor volume (mm^3) (x ± S),"[1]; Group 4, 160 mg/kg i.p., day 11",116.07 mm^3
same,Tumor volume (mm^3) (x ± S),"[1]; Group 4, 160 mg/kg i.p., day 14",139.61 mm^3
same,Tumor volume (mm^3) (x ± S),"[1]; Group 4, 160 mg/kg i.p., day 18",153.86 mm^3
same,Tumor volume (mm^3) (x ± S),"[1]; Group 4, 160 mg/kg i.p., day 21",188.69 mm^3
same,Tumor volume (mm^3) (x ± S),"[1]; Group 4, 160 mg/kg i.p., day 25",198.68 mm^3
same,Tumor volume (mm^3) (x ± S),"[1]; Group 4, 160 mg/kg i.p., day 28",195.90 mm^3
same,Tumor volume (mm^3) (x ± S),"[1]; Group 4, 160 mg/kg i.p., day 32",202.58 mm^3
same,weight loss and tolerability during treatment,"[1]; Group 5, 160 mg/kg i.v. Q2D×3 weeks","did not show any significant weight loss, and tolerated well"
same,Relative tumor volume (x ± S),[1]; [4],0.00 ± 0.00
same,T/C (%),[1]; [4],0.00%
same,TGI (%),[1]; [4],100%
same,complete tumor inhibition rate,[1]; [4],100%
same,Tumor volume (x ± S),"[1]; Group 5, 160 mg/kg i.v. Q2D×3 weeks, Day 32, mean ± standard error",0.00 ± 0.00
same,Average weight (g) of mice,"[1]; Group 5, 160 mg/kg i.v., Day 0",21.6 g
same,Average weight (g) of mice,"[1]; Group 5, 160 mg/kg i.v., Day 2",21.8 g
same,Average weight (g) of mice,"[1]; Group 5, 160 mg/kg i.v., Day 4",21.4 g
same,Average weight (g) of mice,"[1]; Group 5, 160 mg/kg i.v., Day 7",20.9 g
same,Average weight (g) of mice,"[1]; Group 5, 160 mg/kg i.v., Day 8",21.6 g
same,Average weight (g) of mice,"[1]; Group 5, 160 mg/kg i.v., Day 10",21.3 g
same,Average weight (g) of mice,"[1]; Group 5, 160 mg/kg i.v., Day 11",22.1 g
same,Average weight (g) of mice,"[1]; Group 5, 160 mg/kg i.v., Day 12",22.2 g
same,Average weight (g) of mice,"[1]; Group 5, 160 mg/kg i.v., Day 14",22.0 g
same,Average weight (g) of mice,"[1]; Group 5, 160 mg/kg i.v., Day 16",22.3 g
same,Average weight (g) of mice,"[1]; Group 5, 160 mg/kg i.v., Day 18",22.1 g
same,Average weight (g) of mice,"[1]; Group 5, 160 mg/kg i.v., Day 20",22.1 g
same,Average weight (g) of mice,"[1]; Group 5, 160 mg/kg i.v., Day 21",22.3 g
same,Average weight (g) of mice,"[1]; Group 5, 160 mg/kg i.v., Day 25",22.6 g
same,Average weight (g) of mice,"[1]; Group 5, 160 mg/kg i.v., Day 28",22.5 g
same,Average weight (g) of mice,"[1]; Group 5, 160 mg/kg i.v., Day 32",23.2 g
same,Tumor volume (mm^3) (x ± S),"[1]; Group 5, 160 mg/kg i.v., day 0",102.11 mm^3
same,Tumor volume (mm^3) (x ± S),"[1]; Group 5, 160 mg/kg i.v., day 4",98.46 mm^3
same,Tumor volume (mm^3) (x ± S),"[1]; Group 5, 160 mg/kg i.v., day 7",79.97 mm^3
same,Tumor volume (mm^3) (x ± S),"[1]; Group 5, 160 mg/kg i.v., day 11",40.67 mm^3
same,Tumor volume (mm^3) (x ± S),"[1]; Group 5, 160 mg/kg i.v., day 14",22.37 mm^3
same,Tumor volume (mm^3) (x ± S),"[1]; Group 5, 160 mg/kg i.v., day 18",11.52 mm^3
same,Tumor volume (mm^3) (x ± S),"[1]; Group 5, 160 mg/kg i.v., day 21",11.56 mm^3
same,Tumor volume (mm^3) (x ± S),"[1]; Group 5, 160 mg/kg i.v., day 25",6.73 mm^3
same,Tumor volume (mm^3) (x ± S),"[1]; Group 5, 160 mg/kg i.v., day 28",0.00 mm^3
same,Tumor volume (mm^3) (x ± S),"[1]; Group 5, 160 mg/kg i.v., day 32",0.00 mm^3
same,Hepatic Extraction Ratio (ER),[2],0.68
same,Predicted Hepatic CLH,[2],21.21 mL/min/kg
same,clearance and stability in liver microsomes (in words),[2],medium clearances and certain stability
same,Remaining percentage (%),"[2]; NADPH added, 0.5 minutes, 1 μM",100.00%
same,Remaining percentage (%),"[2]; NADPH added, 5 minutes",90.20%
same,Remaining percentage (%),"[2]; NADPH added, 15 minutes",71.99%
same,Remaining percentage (%),"[2]; NADPH added, 30 minutes",52.53%
same,Remaining percentage (%),"[2]; NADPH added, 60 minutes",32.12%
same,Remaining percentage (%),"[2]; NADPH not added, 0.5 minutes",100.00%
same,Remaining percentage (%),"[2]; NADPH not added, 60 minutes",92.14%
same,half-life at 1 μM,"[2]; dog, read-out: In vitro half-life t1/2",36.3 min
same,microsomal CLint at 1 μM,"[2]; dog, read-out: In vitro intrinsic clearance CLint",38.2 µL/min/mg
same,CLint scaled at 1 μM,[2]; read-out: Scale-up CLint,67.2 mL/min/kg
same,t1/2 (min),[3],∞
same,Remaining percentage (%),"[3]; 0 min, 5 μM, 37° C.",100.00%
same,plasma stability (in words),"[3]; 37° C., at least 2 hours",stable and has no significant metabolism
same,Remaining percentage (%),[3]; 15 min,102.19%
same,Remaining percentage (%),[3]; 30 min,96.83%
same,Remaining percentage (%),[3]; 60 min,104.70%
same,Remaining percentage (%),[3]; 120 min,97.53%
